Consider eight compounds from PubChem BioAssay (NCI).

Some test systems named below: SF-539 CNS; BT-549 breast; NCI-H23 lung; LOX IMVI melanoma; U251 CNS; TK-10 renal; UACC-62 melanoma; COLO 205 colon; HT29 colon; PC-3 prostate.
What all share (assay): inhibition of tumour cell growth, NCI panel, 48 h

Several values for one entry are separate records, joined by “and”; a condition that tells them apart may be missing. Identical values can stand only once.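 48-hour exposure; five concentrations; linearly interpolated endpoints. GI50 = concentration required for 50% inhibition of growth. TGI: total growth inhibition.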

For the compound `Oc1cc(Br)cc2cc(Cl)cnc12`, the TGI with SF-539 CNS was over 100 µM; with BT-549 breast, 47.6 µM; in the test on NCI-H23 lung, 48.2 µM; in the test with LOX IMVI melanoma, over 26.5 µM; in the test with U251 CNS it was over 82.8 µM; in the test on TK-10 renal, over 94.3 µM. In addition, the TGI in the test with UACC-62 melanoma is 6.1 µM; with COLO 205 colon, over 54.9 µM; in the test on HT29 colon, over 40.9 µM; with PC-3 prostate, over 100 µM.

Consider `O=c1c2ccccc2nc(N/N=C/c2ccccc2O)n1-c1ccccc1`, for which the TGI with SF-539 CNS, in the test on BT-549 breast, in the test on NCI-H23 lung, in the test with LOX IMVI melanoma, in the test with U251 CNS and with TK-10 renal was over 100 µM each time. The TGI is 7.1 µM with UACC-62 melanoma, over 100 µM in the test on COLO 205 colon, over 100 µM in the test with HT29 colon and over 100 µM in the test with PC-3 prostate.

For the compound `Cc1c(C(=O)O)n2cnnc2c2ccccc12`, the TGI with SF-539 CNS, in the test on BT-549 breast, in the test on NCI-H23 lung, in the test on LOX IMVI melanoma, in the test with U251 CNS and with TK-10 renal was over 100 µM in each case. The TGI with UACC-62 melanoma, in the test with COLO 205 colon, in the test with HT29 colon and with PC-3 prostate was over 100 µM throughout.

In the case of `Brc1ccc2c(-c3csc(-c4c[nH]c5ccccc45)n3)c[nH]c2c1`, the TGI in the test on SF-539 CNS turned out to be 30.8 µM; with BT-549 breast, 37.4 µM; with NCI-H23 lung, 28.2 µM; in the test on LOX IMVI melanoma, 29.6 µM; with U251 CNS, 31.7 µM; in the test on TK-10 renal it was 27.5 µM. Further, the TGI with UACC-62 melanoma was determined as 35.9 µM; with COLO 205 colon, 25.4 µM; with HT29 colon, 29 µM; with PC-3 prostate, 28.9 µM. The GI50 in the test with NCI-H23 lung was 14.5 µM.

Regarding `O=[N+]([O-])C(Cl)=C/C(=C(\Cl)SCc1ccccc1)[N+](=O)[O-]`, the TGI in the test with SF-539 CNS amounted to 45 µM; in the test with BT-549 breast, 50.2 µM; in the test on NCI-H23 lung, 69.6 µM; in the test with LOX IMVI melanoma, 33.6 µM; with U251 CNS it was 34.9 µM; in the test on TK-10 renal, 48.3 µM. Also, the TGI in the test with UACC-62 melanoma is over 100 µM; in the test on COLO 205 colon, 32.3 µM; in the test with HT29 colon, 68.6 µM; in the test with PC-3 prostate, 48.1 µM.

Regarding `C=C(C(=O)O[C@H]1C(=O)C2=C(C)CCC3C(=C)C(=O)O[C@@H]3C2[C@]1(C)O)C1CC[C@]2(C)CCCC(=C)[C@H]2C1` (stereo not given in full), the GI50 in the test on SF-539 CNS is 7.16 µM; in the test on BT-549 breast, 6.99 µM; in the test on LOX IMVI melanoma, 5.26 µM; in the test on U251 CNS, 0.117 µM; in the test on TK-10 renal, 6 µM; in the test on UACC-62 melanoma, 16.9 µM. Moreover, the results for the GI50 in the test on COLO 205 colon, in the test with HT29 colon and with PC-3 prostate were 13.7 µM, 1.59 µM and 4.08 µM, respectively. Further, the TGI in the test with SF-539 CNS is 16.5 µM and 10.3 µM; with BT-549 breast, 14 µM and 11.1 µM; with NCI-H23 lung it was 16.1 µM and 16.8 µM; with LOX IMVI melanoma, 11.5 µM and 15.7 µM; in the test on U251 CNS, 7.04 µM and 9.95 µM; in the test on TK-10 renal, 12.3 µM and 6.78 µM. Besides, the TGI is 9.79 µM and 31.6 µM in the test with UACC-62 melanoma; 23 µM and 34.8 µM in the test on COLO 205 colon; 13.5 µM and 10.8 µM in the test with HT29 colon; 10.4 µM and 16.8 µM with PC-3 prostate.

`NC(N)=NCCCC(NC(=O)OCCCCn1ccc(N)nc1=O)C(=O)O` (stereo not given): the TGI in the test on SF-539 CNS, in the test with BT-549 breast, with NCI-H23 lung, with LOX IMVI melanoma, in the test with U251 CNS and in the test with TK-10 renal was over 100 µM each time. Further, the TGI with UACC-62 melanoma, with COLO 205 colon, with HT29 colon and in the test on PC-3 prostate was over 100 µM in each case.

Turning to `c1ccc(CN2CCN3CCN(CC2)CCN(Cc2ccccc2)CC3)cc1`, the TGI was determined as 21.6 µM with SF-539 CNS; 17.6 µM in the test with BT-549 breast; 21.8 µM with NCI-H23 lung; 25.7 µM with LOX IMVI melanoma; 15.8 µM in the test on U251 CNS; 23.5 µM with TK-10 renal. The TGI turned out to be 14.9 µM in the test with UACC-62 melanoma, 5.06 µM with COLO 205 colon, 17.2 µM in the test on HT29 colon and 18.5 µM with PC-3 prostate.
